The source of these data is US20240150356A1, “Pyrimidine amide compounds and use thereof” (ALPHALA CO., LTD., priority 2019, published 2024).

The structures appear in SMILES notation. Bounds are passed on as bounds.

For the test, the system named is Hep3B cells (hepatocellular carcinoma cell line). The test is described as follows: In vitro MTS cell viability assay (NCI-60 methodology), Hep3B. In kind it is cell-based. The conditions noted are these: Homo sapiens, 48 h, Table 6, MTS, 2 days drug incubation, 50% reduction vs time zero, read-out: Hep3B LC50. The method in brief:
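Following NCI-60 method, MTS viability of Hep3B measured 24 h after plating (time zero) and after a further 2-day exposure to five concentrations (2-fold series). LC50 defined where [(Ti−Tz)/Tz]×100 = −50.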
Background: Formazan colour is commonly taken as a measure of viable cells.
By LC50 is commonly meant the concentration that kills 50% of the test population. On to `O=C(Nc1nc(N2CCC[C@H]2CO)nc2c1cnn2-c1cccc(Cl)c1)c1ccc([N+](=O)[O-])s1` [Compound 6-31, (S)—N-(1-(3-chlorophenyl)-6(2-(hydroxymethyl)pyrrolidin-1-yl)-1H-pyrazolo[3,4-d]pyrmidin-4-yl)-5-nitrothiophene-2-carboxamide], for which the LC50 was above 1250 nM.
With `COC(=O)[C@@H]1CCCN1c1nc(NC(=O)c2ccc([N+](=O)[O-])s2)c2cnn(-c3cccc(Cl)c3)c2n1` [Compound 6-32, methyl (1-(3-chlorophenyl)-4-(5-nitrothiophene-2-carboxamido)-1H-pyrazolo[3,4-d]pyrimidin-6-yl)-L-prolinate] the figure was 560 nM; with `O=C(Nc1nc(-c2ccsc2)nc2c1cnn2-c1cccc(Cl)c1)c1ccc([N+](=O)[O-])s1` [Compound 6-33, N-(1-(3-chlorophenyl)-6-(thiophen-3-yl)-1H-pyrazolo[3,4-d]pyrimidin-4-yl)-5-nitrothiophene-2-carboxamide], 290 nM; with `O=C(Nc1nc(-c2cccc(F)c2)nc2c1cnn2-c1cccc(Cl)c1)c1ccc([N+](=O)[O-])s1` [Compound 6-34, N-(1-(3-chlorophenyl)-6-(3-fluorophenyl)-1H-pyrazolo[3,4-d]pyrimidin-4-yl)-5-nitrothiophene-2-carboxamide], 190 nM.
In the case of `O=C(Nc1nc(-c2cccc(Cl)c2)nc2c1cnn2-c1cccc(Cl)c1)c1ccc([N+](=O)[O-])s1` [Compound 6-37, N-(1,6-bis(3-chlorophenyl)-1H-pyrazolo[3,4-d]pyrimidin-4-yl)-5-nitrothiophene-2-carboxamide] it was 230 nM; in that of `O=C(Nc1nc(-c2ccc(Cl)cc2)nc2c1cnn2-c1cccc(Cl)c1)c1ccc([N+](=O)[O-])s1` [Compound 6-38, N-(1-(3-chlorophenyl)-6-(4-chlorophenyl)-1H-pyrazolo[3,4-d]pyrimidin-4-yl)-5-nitrothiophene-2-carboxamide], 380 nM.
In the case of `O=C(Nc1nc(-c2cccc(OC(F)(F)F)c2)nc2c1cnn2-c1cccc(Cl)c1)c1ccc([N+](=O)[O-])s1` [Compound 6-40, N-(1-(3-chlorophenyl)-6-(3-(trifluoromethoxy)phenyl)-1H-pyrazolo[3,4-d]pyrimidin-4-yl)-5-nitrothiophene-2-carboxamide] it was 480 nM; in that of `O=C(Nc1nc(-c2ccc(C(F)(F)F)cc2F)nc2c1cnn2-c1cccc(Cl)c1)c1ccc([N+](=O)[O-])s1` [Compound 6-41, N-(1-(3-chlorophenyl)-6-(2-fluoro-4-(trifluoromethyl)phenyl)-1H-pyrazolo[3,4-d]pyrimidin-4-yl)-5-nitrothiophene-2-carboxamide], 320 nM; in that of `O=C(Nc1nc(-c2ccc(C(F)(F)F)cc2C(F)(F)F)nc2c1cnn2-c1cccc(Cl)c1)c1ccc([N+](=O)[O-])s1` [Compound 6-42], 760 nM.
With `COCCOc1ccc(-c2nc(NC(=O)c3ccc([N+](=O)[O-])s3)c3cnn(-c4cccc(Cl)c4)c3n2)cn1` [Compound 6-43, N-(1-(3-chlorophenyl)-6-(6-(2-methoxyethoxy)pyridin-3-yl)-1H-pyrazolo[3,4-d]pyrimidin-4-yl)-5-nitrothiophene-2-carboxamide], the LC50 was 90 nM.
Regarding `CCOCCOc1ccc(-c2nc(NC(=O)c3ccc([N+](=O)[O-])s3)c3cnn(-c4cccc(Cl)c4)c3n2)cn1` [Compound 6-44, N-(1-(3-chlorophenyl)-6-(6-(2-ethoxyethoxy)pyridin-3-yl)-1H-pyrazolo[3,4-d]pyrimidin-4-yl)-5-nitrothiophene-2-carboxamide], the LC50 was determined as 450 nM.
With `Cc1ccn(-c2nc(NC(=O)c3ccc([N+](=O)[O-])s3)c3cnn(-c4ccc(Cl)cc4)c3n2)n1` [Compound 6-46, N-(1-(4-chlorophenyl)-6-(3-methyl-1H-pyrazol-1-yl)-1H-pyrazolo[3,4-d]pyrimidin-4-yl)-5-nitrothiophene-2-carboxamide] the figure was 160 nM.
Turning to `O=C(Nc1nc(N2CCCCC2)nc2c1cnn2-c1ccc(Cl)cc1)c1ccc([N+](=O)[O-])s1` [Compound 6-47, N-(1-(4-chlorophenyl)-6-(piperidin-1-yl)-1H-pyrazolo[3,4,d]pyrimidin-4-yl)-5-nitrothiophene-2-carboxamide], the LC50 came to 710 nM.
In the case of `O=C(Nc1nc(-c2ccc(F)cc2)nc2c1cnn2-c1ccc(Cl)cc1)c1ccc([N+](=O)[O-])s1` [Compound 6-48, N-(1-(4-chlorophenyl)-6-(4-fluorophenyl)-1H-pyrazolo[3,4-d]pyrimidin-4-yl)-5-nitrothiophene-2-carboxamide], the LC50 stood at 180 nM.
`O=C(Nc1nc(-c2ccc(Cl)cc2)nc2c1cnn2-c1ccc(Cl)cc1)c1ccc([N+](=O)[O-])s1` [Compound 6-49, N-(1,6-bis(4-chlorophenyl)-1H-pyrazolo[3,4-d]pyrimidin-4-yl)-5-nitrothiophene-2-carboxamide]: the LC50 is 170 nM.
In the case of `O=C(Nc1nc(-c2ccc3c(c2)OCO3)nc2c1cnn2-c1ccc(Cl)cc1)c1ccc([N+](=O)[O-])s1` [Compound 6-50, N-(6-(benzo[d][1,3]dioxol-5-yl)-1(4-chlorophenyl)-1H-pyrazolo[3,4-d]pyrimidin-4-yl)-5-nitrothiophene-2-carboxamide] it was 160 nM; in that of `COCCOc1ccc(-c2nc(NC(=O)c3ccc([N+](=O)[O-])s3)c3cnn(-c4ccc(Cl)cc4)c3n2)cn1` [Compound 6-51, N-(1-(4-chlorophenyl)-6-(6-(2-methoxyethoxy)pyridin-3-yl)-1H-pyrazolo[3,4-d]pyrimidin-4-yl)-5-nitrothiophene-2-carboxamide], 50 nM; in that of `CCOCCOc1ccc(-c2nc(NC(=O)c3ccc([N+](=O)[O-])s3)c3cnn(-c4ccc(Cl)cc4)c3n2)cn1` [Compound 6-52, N-(1-(4-chlorophenyl)-6-(6-(2-ethoxyethoxy)pyridin-3-yl)-1H-pyrazolo[3,4-d]pyrimidin-4-yl)-5-nitrothiophene-2-carboxamide], 220 nM.
In the case of `CCOCCOCCOc1ccc(-c2nc(NC(=O)c3ccc([N+](=O)[O-])s3)c3cnn(-c4ccc(C(F)(F)F)cc4)c3n2)cn1` [Compound 6-56, N-(6(6-(2-(2-ethoxyethoxy)ethoxy)pyridin-3-yl)-1-(4-(trifluoromethyl)phenyl)-1H-pyrazolo[3,4-d]pyrimidin-4-yl)-5-nitrothiophene-2-carboxamide] it was 200 nM; in that of `CC(C)(C)c1ccc(-n2ncc3c(NC(=O)c4ccc([N+](=O)[O-])s4)nc(OCC(F)(F)C(F)F)nc32)cc1` [Compound 6-59, N-(1-(4-(tert-butyl)phenyl)-6-(2,2,3,3-tetrafluoropropoxy)-1H-pyrazolo[3,4-d]pyrimidin-4-yl)-5-nitrothiophene-2-carboxamide], 500 nM; in that of `CC(C)(C)c1ccc(-n2ncc3c(NC(=O)c4ccc([N+](=O)[O-])s4)nc(OCCN4CCOCC4)nc32)cc1` [Compound 6-60, N-(1-(4-(tert-butyl)phenyl)-6-(2-morpholinoethoxy)-1H-pyrazolo[3,4-d]pyrimidin-4-yl)-5-nitrothiophene-2-carboxamide], 890 nM.
On to `CCOCCOCCOc1nc(NC(=O)c2ccc([N+](=O)[O-])s2)c2cnn(-c3ccc(C(C)(C)C)cc3)c2n1` [Compound 6-61], for which the LC50 stood at 540 nM.
